Patent publication US20150272951A1, “COMPOUNDS FOR THE TREATMENT OF LYSOSOMAL STORAGE DISEASES” (The Hospital for Sick Children, priority 2010, published 2015)

test system: malaria; assay: not given; conditions: cited from earlier work

Compound | activity against malaria relative to PYR
CCc1nc(N)nc(N)c1-c1ccccc1 [ksh3-10] | inferior activity against malaria relative to PYR

target: HexB (Homo sapiens, UniProt P07686); assay: HexB inhibition (purified isozyme); format: biochemical; conditions: pH 4.5, 1.6 mM substrate, read-out: IC50 HexB pH 4.5
Sequence (P07686 122-311 limits assumed): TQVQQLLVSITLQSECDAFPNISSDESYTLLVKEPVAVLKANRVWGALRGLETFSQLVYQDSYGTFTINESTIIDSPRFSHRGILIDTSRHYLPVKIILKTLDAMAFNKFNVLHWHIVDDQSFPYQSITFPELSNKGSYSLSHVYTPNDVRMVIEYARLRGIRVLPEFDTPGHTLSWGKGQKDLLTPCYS
Sequence (P07686 315-556 limits assumed): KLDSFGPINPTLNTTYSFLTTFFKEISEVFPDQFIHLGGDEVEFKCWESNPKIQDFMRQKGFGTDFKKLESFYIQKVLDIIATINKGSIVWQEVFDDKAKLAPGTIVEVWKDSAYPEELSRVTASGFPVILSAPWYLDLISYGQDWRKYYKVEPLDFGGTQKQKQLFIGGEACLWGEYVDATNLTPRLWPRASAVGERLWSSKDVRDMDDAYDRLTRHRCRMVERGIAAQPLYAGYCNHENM
Experimental: (§1) Experiments were performed using 1.6 mM 4-methylumbelliferone-b-N-Acetylglucosamine substrate.

Compound | IC50
CCc1nc(N)nc(N)c1-c1ccccc1 [ksh3-10] | 38 µM

same assay, conditions: pH 7, read-out: IC50 HexB pH 7

Compound | IC50
CCc1nc(N)nc(N)c1-c1ccccc1 [ksh3-10] | 15 µM

test system: lysosomal HexA; assay: Intracellular hydrolysis of fluorescent GM2 ganglioside derivative in patient cells; format: cell-based, human; conditions: PYRdCl 11 μg/ml vs PYR 33 μg/ml, 10 days
Experimental: Prior to evaluation of the GM2 hydrolytic activity of lysosomal HexA, cells were treated with Conduritol b-epoxide (Glucocerebrosidase inhibitor) to limit hydrolysis beyond (GlcCer) loaded with a fluorescent derivative of GM2 ganglioside for 8 hrs. Neutral glycolipids and gangliosides were separated by Folch extraction of the treated cells. Gangliosides and glycolipids were resolved by High Performance Thin Layer Chromatography and visualized by Fluorescence Imaging (Storm Imager, Molecular Devices).

Compound | intracellular hydrolysis of fluorescent GM2 ganglioside derivative
CCc1nc(N)nc(N)c1-c1ccccc1 [ksh3-10] | greater intracellular hydrolysis

target: T1, purified recombinant human DHFR (Homo sapiens, UniProt P00374); assay: DHFR inhibition; format: biochemical; conditions: FIG. 13B
T1 sequence (P00374 1-187): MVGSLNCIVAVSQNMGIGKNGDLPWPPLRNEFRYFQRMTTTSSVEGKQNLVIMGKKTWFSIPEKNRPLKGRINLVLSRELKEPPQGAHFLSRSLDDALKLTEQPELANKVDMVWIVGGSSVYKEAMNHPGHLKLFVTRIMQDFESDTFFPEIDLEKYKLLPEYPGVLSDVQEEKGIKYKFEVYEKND

Compound | IC50
CCc1nc(N)nc(N)c1-c1ccccc1 [ksh3-10] | 0.2 µM

test system: mutant Hex A; assay: not given; format: cell-based, human; conditions: 33.33 μg/ml, five days
Experimental: The cells were harvested and assayed for Hex A using a fluorescent artificial substrate, MUGS. The increase in Hex A activity relative to that of untreated cells is given, i.e. no change in activity=1;
Cells were grown in the indicated concentrations of either drug for five days. The cells were harvested and assayed for Hex A activity using a fluorescent artificial substrate, MUGS. The increase in Hex A activity relative to that of untreated cells is given, i.e. no change in activity=1.
Two of the other cultures were un-genotyped infantile Tay-Sachs disease fibroblast cell lines. […] The increase in Hex A activity relative to that of untreated cells is given, i.e., no change in activity=1. The decrease in Hex A activity at high concentrations represents cell toxicity.

Compound | cell toxicity
CCc1nc(N)nc(N)c1-c1ccc(Cl)cc1 [PYR, Pyrimethamine, reference compound] | cell death was occurring

same assay, conditions: 33.33 μg/ml, five days, relative to untreated cells (FIG. 5)

Compound | fold increase in Hex A activity
CCc1nc(N)nc(N)c1-c1ccccc1 [ksh3-10] | 7 fold

same assay, conditions: all Tay-Sachs cell lines tested (FIG. 5)

Compound | Hex A rescue response compared with PYR
CCc1nc(N)nc(N)c1-c1ccccc1 [ksh3-10] | as good or a better than PYR

same assay, conditions: fibroblasts expressing αG269S, four days (FIG. 1)

Compound | rescue of mutant Hex A activity compared with NGT
CCc1nc(N)nc(N)c1-c1ccc(Cl)cc1 [PYR, Pyrimethamine, reference compound] | better able to rescue mutant Hex A activity

target: Hex A (Homo sapiens, UniProt P06865+P07686); assay: Hex A inhibition (IC50 from dose response curves of Hex A residual activity); conditions: IC50 (μM ± Err), Hex A inhibition, values determined in Example 3; pH not given;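 further: remaining Hex A enzyme activity recorded across rising inhibitor doses, with dose response curves run at pH 6.5 and again at pH 4.5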
Sequence (P06865 89-529): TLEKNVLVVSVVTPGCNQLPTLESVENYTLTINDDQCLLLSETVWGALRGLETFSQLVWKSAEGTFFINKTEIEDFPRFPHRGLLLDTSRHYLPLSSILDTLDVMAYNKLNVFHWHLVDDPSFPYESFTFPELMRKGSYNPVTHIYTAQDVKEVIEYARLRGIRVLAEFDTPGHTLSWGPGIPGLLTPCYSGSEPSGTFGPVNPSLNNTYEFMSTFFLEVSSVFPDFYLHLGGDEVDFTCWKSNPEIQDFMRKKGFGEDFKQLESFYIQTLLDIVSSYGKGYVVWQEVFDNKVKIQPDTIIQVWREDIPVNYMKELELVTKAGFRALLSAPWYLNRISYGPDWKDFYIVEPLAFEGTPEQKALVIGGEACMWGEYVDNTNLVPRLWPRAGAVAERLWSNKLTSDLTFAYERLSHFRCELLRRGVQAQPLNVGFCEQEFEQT
Sequence (P07686 122-311 limits assumed): as the sequence (P07686 122-311 limits assumed) above
Sequence (P07686 315-556 limits assumed): as the sequence (P07686 315-556 limits assumed) above

Compound | IC50
CCCc1nc(N)nc(N)c1-c1ccccc1 [ksh3-29] | 37 ± 1 µM
CCc1nc(N)nc(N)c1-c1ccccc1C [ksh3-19c] | 44 ± 1 µM
CCc1nc(N)nc(N)c1-c1ccc(C(F)(F)F)cc1 [jts16] | 18 ± 1 µM
CCc1nc(N)nc(N)c1-c1ccc(F)cc1 [ksh3-17] | 50 ± 1 µM
NCc1nc(N)nc(N)c1-c1ccc(Cl)cc1 [zjm7-27] | 176 ± 1 µM
CCc1nc(N)nc(N)c1-c1ccc(C)cc1 [ksh3-19b] | 72 ± 2 µM
CC(C)c1nc(N)nc(N)c1-c1ccc(Cl)cc1 [jts20] | 406 ± 2 µM
CCCc1nc(N)nc(N)c1-c1ccc(F)cc1 [ksh3-33a] | 39 ± 1 µM
CCCc1nc(N)nc(N)c1-c1ccc(C)cc1 [zjm1-137] | 28 ± 1 µM
CCc1nc(N)nc(N)c1-c1cccs1 [zjm7-67] | 31 ± 1 µM
CCc1nc(N)nc(N)c1-c1ccsc1 [zjm7-69] | 55 ± 1 µM
CCCc1nc(N)nc(N)c1-c1ccc(C(F)(F)F)cc1 [zjm1-141] | 16 ± 1 µM
CCCc1nc(N)nc(N)c1-c1cccc(C)c1 [ksh3.33d] | 50 ± 1 µM
CCCCc1nc(N)nc(N)c1-c1ccc(C(F)(F)F)cc1 [zjm1-115] | 142 ± 3 µM
Cc1nc(N)nc(N)c1-c1ccc(Cl)cc1 [jts22] | 556 ± 1 µM
CCCc1nc(N)nc(N)c1-c1cc(C)cc(C)c1 [ksh3.33e] | 24 ± 1 µM
CCCc1nc(N)nc(N)c1-c1ccc(OC)cc1 [zjm1-139] | 28 ± 1 µM

same assay, conditions: IC50 (μM), without error; pH not stated

Compound | IC50
CCCc1nc(N)nc(N)c1-c1ccccc1 [ksh3-29] | 36.6 µM
CCc1nc(N)nc(N)c1-c1ccccc1C [ksh3-19c] | 43.7 µM
CCc1nc(N)nc(N)c1-c1ccc(C(F)(F)F)cc1 [jts16] | 17.7 µM
CCc1nc(N)nc(N)c1-c1ccc(F)cc1 [ksh3-17] | 50.4 µM
NCc1nc(N)nc(N)c1-c1ccc(Cl)cc1 [zjm7-27] | 176 µM
CCc1nc(N)nc(N)c1-c1ccc(C)cc1 [ksh3-19b] | 72.3 µM
CC(C)c1nc(N)nc(N)c1-c1ccc(Cl)cc1 [jts20] | 406 µM
CCCc1nc(N)nc(N)c1-c1ccc(F)cc1 [ksh3-33a] | 39.1 µM
CCCc1nc(N)nc(N)c1-c1ccc(C)cc1 [zjm1-137] | 28.4 µM
CCc1nc(N)nc(N)c1-c1cccs1 [zjm7-67] | 30.8 µM
CCc1nc(N)nc(N)c1-c1ccsc1 [zjm7-69] | 55 µM
CCCc1nc(N)nc(N)c1-c1ccc(C(F)(F)F)cc1 [zjm1-141] | 15.9 µM
CCCc1nc(N)nc(N)c1-c1cccc(C)c1 [ksh3.33d] | 50.4 µM
CCCCc1nc(N)nc(N)c1-c1ccc(C(F)(F)F)cc1 [zjm1-115] | 142 µM
Cc1nc(N)nc(N)c1-c1ccc(Cl)cc1 [jts22] | 556 µM
CCCc1nc(N)nc(N)c1-c1cc(C)cc(C)c1 [ksh3.33e] | 24.4 µM
CCCc1nc(N)nc(N)c1-c1ccc(OC)cc1 [zjm1-139] | 28.2 µM

same assay, conditions: pH dependence of Hex A inhibition

Compound | pKHA
CCc1nc(N)nc(N)c1-c1ccc(Cl)cc1 [PYR, Pyrimethamine, reference compound] | 6.5

same assay, conditions: read-out: IC50 (μM ± Err); Hex A inhibition, values determined in Example 3; pH not given

Compound | IC50
CCc1nc(N)nc(N)c1-c1ccccc1 [ksh3-10] | 32 ± 1 µM

same assay, conditions: read-out: IC50 HexA pH 7; purified HexA, pH 7

Compound | IC50
CCc1nc(N)nc(N)c1-c1ccccc1 [ksh3-10] | 11 µM

same assay, conditions: without error; pH not stated

Compound | IC50
CCc1nc(N)nc(N)c1-c1ccccc1 [ksh3-10] | 32 µM

test system: patient fibroblasts; assay: Cell viability by Alamar Blue; format: cell-based, human; conditions: concentrations greater than 100 μM, five days of treatment

Compound | reduction of viability compared to PYRdCl treated patient fibroblasts
CCc1nc(N)nc(N)c1-c1ccc(Cl)cc1 [PYR, Pyrimethamine, reference compound] | more than 20%

target: mutant Hex A (Homo sapiens, UniProt P06865+P07686); assay: not given; format: cell-based; conditions: Hex A rescue, determined from graphs of FIGS. 5-7
Experimental: Using the graphs of FIGS. 5-7, the EC50 values for Hex A rescue were determined as well as the maximum increase and range of increase in Hex A activity. These values are tabulated in Table 2, together with the IC50 values for Hex A inhibition that were determined in Example 3.

Compound | EC50
CCCc1nc(N)nc(N)c1-c1ccccc1 [ksh3-29] | 12.1 µM
CCc1nc(N)nc(N)c1-c1ccccc1C [ksh3-19c] | 4.95 µM
CCc1nc(N)nc(N)c1-c1ccc(C(F)(F)F)cc1 [jts16] | 5.14 µM
CCc1nc(N)nc(N)c1-c1ccc(F)cc1 [ksh3-17] | 8.24 µM
CCc1nc(N)nc(N)c1-c1ccc(C)cc1 [ksh3-19b] | 4.44 µM
CCCc1nc(N)nc(N)c1-c1ccc(F)cc1 [ksh3-33a] | 12.5 µM
CCCc1nc(N)nc(N)c1-c1ccc(C)cc1 [zjm1-137] | 4.6 µM
CCc1nc(N)nc(N)c1-c1cccs1 [zjm7-67] | 6.46 µM
CCc1nc(N)nc(N)c1-c1ccsc1 [zjm7-69] | 10 µM
CCCc1nc(N)nc(N)c1-c1ccc(C(F)(F)F)cc1 [zjm1-141] | 11.6 µM
CCCc1nc(N)nc(N)c1-c1cccc(C)c1 [ksh3.33d] | 14.8 µM
CCc1nc(N)nc(N)c1-c1ccccc1 [ksh3-10] | 38.4 µM
CCCc1nc(N)nc(N)c1-c1ccc(OC)cc1 [zjm1-139] | 14.2 µM

same assay, conditions: concentration of 100 μM (FIGS. 6 and 7)

Compound | fold increase in Hex A activity (rescue of mutant Hex A)
CCc1nc(N)nc(N)c1-c1ccccc1 [ksh3-10] | ~3 fold

same assay, conditions: maximum increase in Hex A activity relative to untreated cells (=1)

Compound | Max Increase
CCCc1nc(N)nc(N)c1-c1ccccc1 [ksh3-29] | 1.6
CCc1nc(N)nc(N)c1-c1ccccc1C [ksh3-19c] | 1.9
CCc1nc(N)nc(N)c1-c1ccc(C(F)(F)F)cc1 [jts16] | 1.3
CCc1nc(N)nc(N)c1-c1ccc(F)cc1 [ksh3-17] | 1.8
NCc1nc(N)nc(N)c1-c1ccc(Cl)cc1 [zjm7-27] | 1.4
CCc1nc(N)nc(N)c1-c1ccc(C)cc1 [ksh3-19b] | 1.5
CCCc1nc(N)nc(N)c1-c1ccc(F)cc1 [ksh3-33a] | 1.4
CCCc1nc(N)nc(N)c1-c1ccc(C)cc1 [zjm1-137] | 2.0
CCc1nc(N)nc(N)c1-c1cccs1 [zjm7-67] | 1.7
CCc1nc(N)nc(N)c1-c1ccsc1 [zjm7-69] | 1.9
CCCc1nc(N)nc(N)c1-c1ccc(C(F)(F)F)cc1 [zjm1-141] | 1.5
CCCc1nc(N)nc(N)c1-c1cccc(C)c1 [ksh3.33d] | 1.7
CCc1nc(N)nc(N)c1-c1ccccc1 [ksh3-10] | 2.6
CCc1nc(N)nc(N)c1-c1ccc(Cl)cc1 [PYR, Pyrimethamine, reference compound] | 2.0
CCCc1nc(N)nc(N)c1-c1cc(C)cc(C)c1 [ksh3.33e] | 1.6
CCCc1nc(N)nc(N)c1-c1ccc(OC)cc1 [zjm1-139] | 2.3

same assay, conditions: maximum increase in Hex A activity relative to untreated cells (=1); listed as PYR (vsa7)

Compound | Max Increase
CCc1nc(N)nc(N)c1-c1ccc(Cl)cc1 [PYR, Pyrimethamine, reference compound] | 1.4

same assay, conditions: range of increase in Hex A activity

Compound | Range of Increase
CCCc1nc(N)nc(N)c1-c1ccccc1 [ksh3-29] | 3
CCc1nc(N)nc(N)c1-c1ccccc1C [ksh3-19c] | 4
CCc1nc(N)nc(N)c1-c1ccc(C(F)(F)F)cc1 [jts16] | 4
CCc1nc(N)nc(N)c1-c1ccc(F)cc1 [ksh3-17] | 4
NCc1nc(N)nc(N)c1-c1ccc(Cl)cc1 [zjm7-27] | 1
CCc1nc(N)nc(N)c1-c1ccc(C)cc1 [ksh3-19b] | 4
CCCc1nc(N)nc(N)c1-c1ccc(F)cc1 [ksh3-33a] | 4
CCCc1nc(N)nc(N)c1-c1ccc(C)cc1 [zjm1-137] | 3
CCc1nc(N)nc(N)c1-c1cccs1 [zjm7-67] | 2
CCc1nc(N)nc(N)c1-c1ccsc1 [zjm7-69] | 4
CCCc1nc(N)nc(N)c1-c1ccc(C(F)(F)F)cc1 [zjm1-141] | 3
CCCc1nc(N)nc(N)c1-c1cccc(C)c1 [ksh3.33d] | 3
CCc1nc(N)nc(N)c1-c1ccccc1 [ksh3-10] | 4
CCc1nc(N)nc(N)c1-c1ccc(Cl)cc1 [PYR, Pyrimethamine, reference compound] | 4
CCCc1nc(N)nc(N)c1-c1cc(C)cc(C)c1 [ksh3.33e] | 1
CCCc1nc(N)nc(N)c1-c1ccc(OC)cc1 [zjm1-139] | 4

target: T2, HexA wt (Homo sapiens, UniProt P06865+P07686); assay: Inhibition of HexA enriched from normal fibroblasts; format: biochemical; conditions: pH 4.5
T2 construct: endogenous in cells; host or cells: normal fibroblasts (HexA isozyme enriched from them)
T2 sequence (P06865 89-529): as the sequence (P06865 89-529) above
T2 sequence (P07686 122-311 limits assumed): as the sequence (P07686 122-311 limits assumed) above
T2 sequence (P07686 315-556 limits assumed): as the sequence (P07686 315-556 limits assumed) above
Experimental: as §1

Compound | IC50
CCc1nc(N)nc(N)c1-c1ccccc1 [ksh3-10] | 27 µM
